From PMC5853561, “Affinity purification with metabolomic and proteomic analysis unravels diverse roles of nucleoside diphosphate kinases” (Journal of Experimental Botany, 2017) come the findings set out here.

In assay [1] the target is T1, NDPK1 recombinant protein (AtNDPK1) (Arabidopsis thaliana, UniProt P39207).
T1 construct: gene NDK1; recombinant protein from commercial supplier (MyBioSource)
T1 sequence (P39207 1-149): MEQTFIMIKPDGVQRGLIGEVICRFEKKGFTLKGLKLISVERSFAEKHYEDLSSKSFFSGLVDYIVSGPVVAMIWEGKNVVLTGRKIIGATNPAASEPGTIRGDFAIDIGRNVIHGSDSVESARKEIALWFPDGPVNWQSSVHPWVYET
As to the kind of experiment: coupled pyruvate kinase-lactate dehydrogenase assay, NADH at […] nm. Format: biochemical. The following applies: inhibitor; 500 uM cGMP; ATP and 4 mM TDP as substrates.

For assay [2], the target named is T1, NDPK1 recombinant protein (AtNDPK1). The assay is described as above. Format: biochemical. The following applies: phosphate acceptor, ATP as donor; 4 mM TDP.

`Nc1nc2c(ncn2[C@@H]2O[C@@H]3COP(=O)(O)O[C@H]3[C@H]2O)c(=O)[nH]1` [3',5'-cGMP]: the “specific activity, % of control at 500 uM” value in assay [1] is given as 51%.

For `Cc1cn([C@H]2C[C@H](O)[C@@H](COP(=O)(O)OP(=O)(O)O)O2)c(=O)[nH]c1=O` [TDP], the “coupled pyruvate kinase-lactate dehydrogenase assay, NADH at 340 nm” value in assay [2] is “TDP was used as a NDPK1 substrate and phosphate group acceptor”.
